Assay results from ChEMBL document CHEMBL1138824, “Design and synthesis of hydroxyethylene-based peptidomimetic inhibitors of human beta-secretase” (J Med Chem, 2004).
Residues, ends and D or L forms follow the SMILES beside them.

What was measured:
[1] = molecular target: Beta-secretase (BACE) (Homo sapiens, UniProt Q9Y5Z0+P56817); assay: Inhibition of human beta secretase in MBP-C125 assay.; type: protein assay
[2] = system: HEK293; assay: Effective concentration evaluated in HEK293 cells; type: functional, cell-based; details: Homo sapiens

Row | SMILES | IC50 [1] [nM] | EC50 [2] [nM]
1 | CC(C)C[C@H](NC(=O)C(O)c1cccc2ccccc12)[C@@H](O)C[C@H](C(=O)N[C@@H](C)C(=O)N[C@@H](CCC(=O)O)C(=O)N[C@@H](Cc1ccccc1)C(=O)O)C(C)C (some centres undefined) | 7500 | 
2 | CSCC[C@H](NC(=O)[C@@H](NC(=O)OC(C)(C)C)C(C)C)C(=O)N[C@@H](CC(C)C)[C@@H](O)C[C@@H](C)C(=O)N[C@H](C(=O)NCc1ccccc1)C(C)C | 3 | 
3 | CCCN(CCC)C(=O)c1cccc(C(=O)N[C@@H](Cc2cc(F)cc(F)c2)[C@@H](O)C[C@@H](CC(C)C)C(=O)NC[C@H]2CC[C@H](C(=O)O)CC2)c1 | 310 | 
4 | CCCN(CCC)C(=O)c1cccc(C(=O)N[C@@H](Cc2cc(F)cc(F)c2)[C@@H](O)C[C@@H](Cc2ccccc2)C(=O)NC[C@H]2CC[C@H](C(=O)O)CC2)c1 | 27000 | 
5 | CC(C)[C@H](NC(=O)C[C@H](O)[C@H](Cc1cc(F)cc(F)c1)NC(=O)C(O)c1ccccc1-c1ccccc1)C(=O)N[C@H]1C[C@@H](C(=O)O)C[C@@H](C(=O)O)C1 (some centres undefined) | 20 | > 10000
6 | CCCN(CCC)C(=O)c1cccc(C(=O)N[C@@H](Cc2cc(F)cc(F)c2)[C@@H](O)CCC(=O)NC[C@H]2CC[C@H](C(=O)O)CC2)c1 | 400 | 
7 | CCCN(CCC)C(=O)c1cccc(C(=O)N[C@@H](Cc2cc(F)cc(F)c2)[C@@H](O)CC(=O)N[C@H](C(=O)N[C@H]2C[C@@H](C(=O)O)C[C@@H](C(=O)O)C2)C(C)C)c1 | 1 | 1000
8 | CC(C)C[C@H](NC(=O)C(O)c1cccc2ccccc12)[C@@H](O)CC(=O)N[C@H](C(=O)N[C@@H](C)C(=O)N[C@@H](CCC(=O)O)C(=O)N[C@@H](Cc1ccccc1)C(=O)O)C(C)C (some centres undefined) (HELM PEPTIDE1{[O=C(C(O)c1cccc2ccccc12)[*:2]].[CC(C)C[C@H](N[*:1])[C@@H](O)CC(=O)[*:2]].V.A.E.F}$$$$V2.0) | 4000 | 
9 | CSCC[C@H](NC(=O)[C@@H](NC(C)=O)C(C)C)C(=O)N[C@@H](CC(C)C)[C@@H](O)C[C@H](C(=O)N[C@@H](C)C(=O)N[C@@H](CCC(=O)O)C(=O)N[C@@H](Cc1ccccc1)C(=O)O)C(C)C (HELM PEPTIDE1{[ac].V.M.[CC(C)C[C@H](N[*:1])[C@@H](O)C[C@H](C(=O)[*:2])C(C)C].A.E.F}$$$$V2.0) | 30 | 

The next lines start with results.

Row | IC50 [1] [nM] | SMILES | EC50 [2] [nM]
10 | 400 | CCCN(CCC)C(=O)c1cccc(C(=O)N[C@@H](Cc2cc(F)cc(F)c2)[C@@H](O)C[C@@H](CC)C(=O)NCCCCC(=O)O)c1 | 
11 | 310 | CCCN(CCC)C(=O)c1cccc(C(=O)N[C@@H](Cc2cc(F)cc(F)c2)[C@@H](O)C[C@@H](CC)C(=O)NCCCC(=O)O)c1 | 
12 | 6600 | CCCN(CCC)C(=O)c1cccc(C(=O)N[C@@H](Cc2cc(F)cc(F)c2)[C@@H](O)C[C@@H](CC)C(=O)N[C@H]2C[C@@H](OC)C[C@@H](OC)C2)c1 | 
13 | 240 | CCCN(CCC)C(=O)c1cccc(C(=O)N[C@@H](Cc2cc(F)cc(F)c2)[C@@H](O)C[C@@H](CC)C(=O)NCCCCCC(=O)O)c1 | 
14 | 2800 | CCCN(CCC)C(=O)c1cccc(C(=O)N[C@@H](Cc2cc(F)cc(F)c2)[C@@H](O)C[C@@H](CC)C(=O)NCCC(=O)O)c1 | 
15 | 410 | CCCN(CCC)C(=O)c1cccc(C(=O)N[C@@H](Cc2cc(F)cc(F)c2)[C@@H](O)C[C@@H](CC)C(=O)NCCCCCCCC(=O)OC)c1 | 
16 | 50 | CCCN(CCC)C(=O)c1cccc(C(=O)N[C@@H](Cc2cc(F)cc(F)c2)[C@@H](O)C[C@@H](CC)C(=O)NC[C@H]2CC[C@H](C(=O)O)CC2)c1 | 
17 | 30 | CCCN(CCC)C(=O)c1cccc(C(=O)N[C@@H](Cc2cc(F)cc(F)c2)[C@@H](O)C[C@@H](C)C(=O)NCC(C)C)c1 | 3000
18 | 1400 | CCCN(CCC)C(=O)c1cccc(C(=O)N[C@@H](Cc2cc(F)cc(F)c2)[C@@H](O)C[C@@H](CC)C(=O)NCc2ccccc2)c1 | 
19 | 45 | CCC[C@H](C[C@H](O)[C@H](Cc1cc(F)cc(F)c1)NC(=O)c1cccc(C(=O)N(CCC)CCC)c1)C(=O)NC[C@H]1CC[C@H](C(=O)O)CC1 | 
20 | 26 | CCCN(CCC)C(=O)c1cccc(C(=O)N[C@@H](Cc2cc(F)cc(F)c2)[C@@H](O)C[C@@H](C)C(=O)NC[C@H]2CC[C@H](C(=O)O)CC2)c1 | 
21 | 200 | CCCN(CCC)C(=O)c1cccc(C(=O)N[C@@H](Cc2cc(F)cc(F)c2)[C@@H](O)C[C@@H](CC)C(=O)NCCCCCCCC(=O)O)c1 | 
